Laboratory results reported in US9499509B2, “Dihydrochalcone derivatives and their use as antibiotic agents” (UNIVERSITÉ DU QUÉBEC À CHICOUTIMI, priority 2012, dated 2016).
Converted amounts (≈) assume the structure as drawn. Read-outs that look alike come from different tables or passages of the source.

How the values were obtained:
MRSA strains = assay: Antibiotic assay (absorption 660 nm, Example 2), MRSA strains; format: cell-based, Staphylococcus aureus
Experimental: (§1) Antibiotic agents. Gentamicin sulfate was provided by Calbiochem. Chloramphenicol was provided by Sigma-Aldrich.
(§2) Antibiotic assay. […] The bacteria strains were inoculated in nutrients broth. […] All bacteria were plated in nutrients broth at a concentration of 450 000 bacteria/m L.
(§3) Compounds IV to XXI were diluted in dimethylsulfoxide. […] The compounds were tested at 8 different concentrations.
(§4) Each well contained: 100 μL of bacteria, 100 μL of the compounds tested. The plates were incubated at 37° C. for 6 h. The absorption was read using a Varioskan flash multimode Reader™ (Thermo Scientific) at 660 nm.
(§5) MRSA. Ten (10) strains of MRSA obtained as described above were tested along with an S. aureus wild type (WT) strain (ATCC 25923).

[1] = test system: S. aureus wild type strain (ATCC 25923); assay: Antibiotic assay (absorption 660 nm, Example 2), S. aureus wild type; format: cell-based, Staphylococcus aureus; details: for MIC: S. aureus WT (ATCC 25923); for S. aureus WT ATCC 25923 (toxicity on bacteria): Table 7, same values as MIC of Table 6
Experimental: as §1, §2, §3, §4, §5

WS-1 cell lines = assay: Cytotoxicity assay on WS-1 (Example 2); format: cell-based; design: unit not given here; details: Table 7; WS-1, 48 h
Experimental: Cytotoxicity assay. […] The WS-1 cell lines were provided by ATCC. […] The compounds tested were then added at 8 different concentrations. […] In Table 7, the therapeutic indexes of compounds IV to XXI are presented.

S. aureus = assay: Antibiotic assay (resazurin, Example 1), S. aureus strains of Table 3; format: cell-based, Staphylococcus aureus; details: for IC50: read-out: IC50
Description: (§6) Bacteria Strain. […] The MRSA were obtained as further described below.
(§7) Antibiotic agents. Cyprofloxacin and erythromycin were provided by Sigma-Aldrich. Gentamicin sulfate and vancomycin hydrochloride were provided by Calbiochem.

Streptococcus pneumoniae = assay: Antibiotic assay (resazurin, Example 1), Streptococcus pneumoniae; format: cell-based; details: for IC50: read-out: IC50
Experimental: as §6, §7
(§8) Five additional strains were tested: Streptococcus pneumoniae, Streptococcus agalactiae, Streptococcus pyogenes, Enterococcus faecalis and Corynebacterium jeikeium.

Enterococcus faecalis = assay: Antibiotic assay (resazurin, Example 1), Enterococcus faecalis; format: cell-based; details: for IC50: read-out: IC50
Experimental: as §6, §7, §8

Corynebacterium jeikeium = assay: Antibiotic assay (resazurin, Example 1), Corynebacterium jeikeium; format: cell-based; details: Coryne. jeikeium 14139
Experimental: as §6, §7, §8

Streptococcus pyogenes = assay: Antibiotic assay (resazurin, Example 1), Streptococcus pyogenes; format: cell-based; details: for IC50: read-out: IC50
Experimental: as §6, §7, §8

Streptococcus agalactiae = assay: Antibiotic assay (resazurin, Example 1), Streptococcus agalactiae; format: cell-based; details: for IC50: read-out: IC50
Experimental: as §6, §7, §8

[2] = test system: S. aureus wild type strain (ATCC25923); assay: Antibiotic assay of extracts and fractions (resazurin, Example 6), S. aureus wild type; format: cell-based, Staphylococcus aureus; details: S. aureus WT
Description: (§9) Antibiotic agents. Gentamicin sulfate was provided by Calbiochem.

E. coli (ATCC25922) = assay: Antibiotic assay of extracts and fractions (resazurin, Example 6), E. coli; format: cell-based
Description: as §9

MRSAs (1, 2 and 3) = assay: Antibiotic assay of extracts and fractions (resazurin, Example 6), MRSA 1, 2 and 3; format: cell-based, Staphylococcus aureus
Description: as §9

S. epidermidis = assay: Antibiotic assay (resazurin, Example 1), S. epidermidis strains
Experimental: The antibiotic assays were performed in 96-well plates (BD Falcon). The bacteria strains were inoculated in Nutrient Broth (BD) for the gram negative bacteria and Tryptic soy broth (BD) with 10% of defibrinated sheep blood (PML microbiological) for gram positive strain. All bacteria strains were dosed by spectrophotometry at 660 nm where 1 D.O=2×10^8 bacteria/mL. All bacteria were plated in their respective broth at a concentration of 450 000 bacteria/mL.
Compounds I, II and III were diluted in methanol and the above-noted antibiotic agents were diluted in water. The solvent concentration was 0.25%, which was not toxic for the bacteria. Compounds I, II and III and the above-noted antibiotic agents were tested at 8 different concentrations.
Each well contained: 100 μL of bacteria, 50 μL of the compounds tested (compound I, II, III or the above-noted antibiotic agent) and 50 μL of a 4% resazurin (Sigma) solution. The plates were incubated at 37° C. for 5 h. The fluorescence was read using a Fluoroskan Ascent™ FL (thermo) using an excitation wavelength of 530 nm and an emission wavelength of 590 nm.
Two different strains of Staphylococcus were tested, namely the S. epidermidis and the S. aureus strains.

COc1ccc(CCC(=O)c2c(O)cc(O)c3c2OC(c2ccc(O)cc2)C(O)C3)cc1 (centres unmarked) [XXI]
MIC (MRSA strains; MRSA 1): 17 ± 2 µM (≈ 7.42 µg/mL) | MIC (MRSA strains; MRSA 2): 7 ± 2 µM (≈ 3.06 µg/mL) | MIC (MRSA strains; MRSA 3): 8.5 ± 0.6 µM (≈ 3.71 µg/mL) | MIC (MRSA strains; MRSA 4): 12.3 ± 0.5 µM (≈ 5.37 µg/mL) | MIC (MRSA strains; MRSA 5): 7.7 ± 0.6 µM (≈ 3.36 µg/mL) | MIC (MRSA strains; MRSA 6): 12 ± 1 µM (≈ 5.24 µg/mL) | MIC (MRSA strains; MRSA 7): 11.4 ± 0.5 µM (≈ 4.98 µg/mL) | MIC (MRSA strains; MRSA 8): 8.2 ± 0.2 µM (≈ 3.58 µg/mL) | MIC (MRSA strains; MRSA 9): 10.8 ± 0.8 µM (≈ 4.71 µg/mL) | MIC (MRSA strains; MRSA 10): 12 ± 1 µM (≈ 5.24 µg/mL) | MIC [1]: 28 ± 2 µM (≈ 12.2 µg/mL) | S. aureus WT ATCC 25923 (toxicity on bacteria) [1]: 28 ± 2 | WS-1 (toxicity on normal cells, fibroblast) (WS-1 cell lines): >50

COc1ccc(CCC(=O)c2c(O)cc(O)c3c2OC(c2ccc(O)cc2)C(O)C3)cc1 (centres unmarked) [XX]
MIC (MRSA strains; MRSA 1): 14 ± 1 µM (≈ 6.11 µg/mL) | MIC (MRSA strains; MRSA 2): 11.4 ± 0.5 µM (≈ 4.98 µg/mL) | MIC (MRSA strains; MRSA 3): 8.9 ± 0.3 µM (≈ 3.88 µg/mL) | MIC (MRSA strains; MRSA 4): 7.6 ± 0.2 µM (≈ 3.32 µg/mL) | MIC (MRSA strains; MRSA 5): 3.8 ± 0.3 µM (≈ 1.66 µg/mL) | MIC (MRSA strains; MRSA 6): 11.2 ± 1.0 µM (≈ 4.89 µg/mL) | MIC (MRSA strains; MRSA 7): 12.1 ± 0.7 µM (≈ 5.28 µg/mL) | MIC (MRSA strains; MRSA 8): 7.0 ± 1.0 µM (≈ 3.06 µg/mL) | MIC (MRSA strains; MRSA 9): 12 ± 1 µM (≈ 5.24 µg/mL) | MIC (MRSA strains; MRSA 10): 12.6 ± 0.3 µM (≈ 5.5 µg/mL) | MIC [1]: 14.0 ± 0.8 µM (≈ 6.11 µg/mL) | S. aureus WT ATCC 25923 (toxicity on bacteria) [1]: 14.0 ± 0.8 | WS-1 (toxicity on normal cells, fibroblast) (WS-1 cell lines): >50

Gentamicin sulfate [reference compound]
Minimum Inhibitory Concentration (MIC) (S. aureus; S. aureus 14094): (0.04) μM | IC50 (S. aureus; S. aureus 14094): < 6 nM | Minimum Inhibitory Concentration (MIC) (S. aureus; S. aureus 14108): (0.05) μM | IC50 (S. aureus; S. aureus 14108): 16 ± 3 nM | Minimum Inhibitory Concentration (MIC) (S. aureus; S. aureus 14118): (0.02) μM | IC50 (S. aureus; S. aureus 14118): 8 ± 1 nM | Minimum Inhibitory Concentration (MIC) (S. aureus; S. aureus 14154): (0.04) μM | IC50 (S. aureus; S. aureus 14154): < 16 nM | Minimum Inhibitory Concentration (MIC) (Streptococcus pneumoniae; Strep. pneumoniae 14070): (>20) μM | IC50 (Streptococcus pneumoniae; Strep. pneumoniae 14070): 4000 ± 2000 nM | Minimum Inhibitory Concentration (MIC) (Streptococcus pneumoniae; Strep. pneumoniae 14112): (>20) μM | IC50 (Streptococcus pneumoniae; Strep. pneumoniae 14112): > 20000 nM | Minimum Inhibitory Concentration (MIC) (Streptococcus pneumoniae; Strep. pneumoniae 14138): (>20) μM | IC50 (Streptococcus pneumoniae; Strep. pneumoniae 14138): > 20000 nM | Minimum Inhibitory Concentration (MIC) (Streptococcus pneumoniae; Strep. pneumoniae 14144): (>20) μM | IC50 (Streptococcus pneumoniae; Strep. pneumoniae 14144): > 20000 nM | Minimum Inhibitory Concentration (MIC) (Streptococcus pneumoniae; Strep. pneumoniae 14148): (>20) μM | IC50 (Streptococcus pneumoniae; Strep. pneumoniae 14148): > 20000 nM | Minimum Inhibitory Concentration (MIC) (Enterococcus faecalis; Ent. Faecalis 14078): (>20) μM | IC50 (Enterococcus faecalis; Ent. Faecalis 14078): 11000 ± 1000 nM | Minimum Inhibitory Concentration (MIC) (Enterococcus faecalis; Ent. Faecalis 14115): (>20) μM | IC50 (Enterococcus faecalis; Ent. Faecalis 14115): > 20000 nM | Minimum Inhibitory Concentration (MIC) (Corynebacterium jeikeium): (9.1) μM | IC50 (Corynebacterium jeikeium; read-out: IC50): 920 ± 70 nM | Minimum Inhibitory Concentration (MIC) (Streptococcus pyogenes; Strep. pyogenes 14149): (>20) μM | IC50 (Streptococcus pyogenes; Strep. pyogenes 14149): > 20000 nM | Minimum Inhibitory Concentration (MIC) (Streptococcus pyogenes; Strep. pyogenes 14152): (>20) μM | IC50 (Streptococcus pyogenes; Strep. pyogenes 14152): > 20000 nM | Minimum Inhibitory Concentration (MIC) (Streptococcus agalactiae; Strep. agalactiae 14150): (>20) μM | IC50 (Streptococcus agalactiae; Strep. agalactiae 14150): > 20000 nM | Minimum Inhibitory Concentration (MIC) (Streptococcus agalactiae; Strep. agalactiae 14151): (>20) μM | IC50 (Streptococcus agalactiae; Strep. agalactiae 14151): > 20000 nM | Minimum Inhibitory Concentration (MIC) (Streptococcus agalactiae; Strep. agalactiae 14153): (>20) μM | IC50 (Streptococcus agalactiae; Strep. agalactiae 14153): > 20000 nM | IC50 [2]: <5 ng/mL | MIC [2]: <5 ng/mL | IC50 (E. coli (ATCC25922)): 9 ± 1 ng/mL | MIC (E. coli (ATCC25922)): 19 ng/mL | IC50 (MRSAs (1, 2 and 3); MRSA 1): <5 ng/mL | MIC (MRSAs (1, 2 and 3); MRSA 1): <5 ng/mL | IC50 (MRSAs (1, 2 and 3); MRSA 2): <5 ng/mL | MIC (MRSAs (1, 2 and 3); MRSA 2): <5 ng/mL | IC50 (MRSAs (1, 2 and 3); MRSA 3): 6 ± 0.4 ng/mL | MIC (MRSAs (1, 2 and 3); MRSA 3): 19 ng/mL | IC50 (S. epidermidis; S. epidermidis 14069): < 6 nM | Minimum Inhibitory Concentration (MIC) (S. epidermidis; S. epidermidis 14069): (2.51) μM | IC50 (S. epidermidis; S. epidermidis 14085): < 6 nM | Minimum Inhibitory Concentration (MIC) (S. epidermidis; S. epidermidis 14085): (1.19) μM | IC50 (S. epidermidis; S. epidermidis 14093): < 6 nM | Minimum Inhibitory Concentration (MIC) (S. epidermidis; S. epidermidis 14093): (1.25) μM | IC50 (S. epidermidis; S. epidermidis 14134): 130 ± 10 nM | Minimum Inhibitory Concentration (MIC) (S. epidermidis; S. epidermidis 14134): (0.8) μM | IC50 (S. epidermidis; S. epidermidis 14143): 200 ± 30 nM | Minimum Inhibitory Concentration (MIC) (S. epidermidis; S. epidermidis 14143): (>2) μM
